Experimental data from patent publication US11912701B2, “Protein kinase inhibitors for promoting liver regeneration or reducing or preventing hepatocyte death” (HEPAREGENIX GMBH, priority 2018, dated 2024).

Tests used:
Format in all cases: biochemical
[1] = target: T1, MKK4 (Homo sapiens, UniProt P45985); test: 33PanQinase enzyme assay, MKK4; details: assay 'IC50'; for IC50: read-out: Potency MKK4 (IC50)
T1 construct: purchased ProQinase GmbH, Freiburg, Germany (33PanQinase Assay Service)
T1 sequence (P45985 1-399): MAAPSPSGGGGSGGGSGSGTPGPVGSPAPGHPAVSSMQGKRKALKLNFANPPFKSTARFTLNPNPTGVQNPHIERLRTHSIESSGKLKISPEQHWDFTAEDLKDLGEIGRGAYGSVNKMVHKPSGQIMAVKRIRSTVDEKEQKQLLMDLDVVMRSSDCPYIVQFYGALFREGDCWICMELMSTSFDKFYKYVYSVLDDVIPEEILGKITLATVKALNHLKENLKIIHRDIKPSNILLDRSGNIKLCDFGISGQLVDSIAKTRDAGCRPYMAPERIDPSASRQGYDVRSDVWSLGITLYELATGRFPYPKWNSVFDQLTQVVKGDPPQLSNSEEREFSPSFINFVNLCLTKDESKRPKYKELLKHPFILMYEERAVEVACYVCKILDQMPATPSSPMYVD
Outline: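 Inhibition measured as 33Pi transfer to substrate after a 60-min, 30 °C reaction, acid-stopped and scintillation-counted.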

[2] = target: JNK1 (Homo sapiens, UniProt P45983); test: 33PanQinase enzyme assay, JNK1; design: purchased ProQinase GmbH, Freiburg, Germany (33PanQinase Assay Service); details: ratio IC50(JNK1)/IC50(MKK4)
Outline: (§1)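 33Pi incorporation, read by microplate scintillation counting, measured kinase activity after 60 min at 30 °C. Reactions were quenched with 2% (v/v) H3PO4 and washed with 0.9% NaCl. IC50 derived by least-squares fitting; single doses reported as % residual activity.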

[3] = target: T2, MKK7 (Homo sapiens, UniProt O14733); test: 33PanQinase enzyme assay, MKK7; design: purchased ProQinase GmbH, Freiburg, Germany (33PanQinase Assay Service); details: ratio IC50(MKK7)/IC50(MKK4)
T2 sequence (O14733 1-419): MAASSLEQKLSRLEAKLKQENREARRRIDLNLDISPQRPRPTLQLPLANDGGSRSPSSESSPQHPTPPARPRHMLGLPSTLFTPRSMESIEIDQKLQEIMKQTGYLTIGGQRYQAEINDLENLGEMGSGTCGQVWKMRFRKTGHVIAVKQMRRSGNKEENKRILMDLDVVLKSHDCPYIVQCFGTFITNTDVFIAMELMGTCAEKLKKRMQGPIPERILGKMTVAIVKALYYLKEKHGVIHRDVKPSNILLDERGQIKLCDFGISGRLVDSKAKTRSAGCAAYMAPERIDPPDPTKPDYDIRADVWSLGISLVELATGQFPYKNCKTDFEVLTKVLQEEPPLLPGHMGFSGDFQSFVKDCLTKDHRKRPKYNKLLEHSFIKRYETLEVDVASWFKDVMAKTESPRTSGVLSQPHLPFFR
Outline: as §1

[4] = target: T3, BRaf (Homo sapiens, UniProt P15056); test: 33PanQinase enzyme assay, BRaf; details: ratio IC50(BRaf)/IC50(MKK4)
T3 construct: purchased ProQinase GmbH, Freiburg, Germany (33PanQinase Assay Service)
Outline: as §1

T3 sequence (P15056 whole entry, species assumed): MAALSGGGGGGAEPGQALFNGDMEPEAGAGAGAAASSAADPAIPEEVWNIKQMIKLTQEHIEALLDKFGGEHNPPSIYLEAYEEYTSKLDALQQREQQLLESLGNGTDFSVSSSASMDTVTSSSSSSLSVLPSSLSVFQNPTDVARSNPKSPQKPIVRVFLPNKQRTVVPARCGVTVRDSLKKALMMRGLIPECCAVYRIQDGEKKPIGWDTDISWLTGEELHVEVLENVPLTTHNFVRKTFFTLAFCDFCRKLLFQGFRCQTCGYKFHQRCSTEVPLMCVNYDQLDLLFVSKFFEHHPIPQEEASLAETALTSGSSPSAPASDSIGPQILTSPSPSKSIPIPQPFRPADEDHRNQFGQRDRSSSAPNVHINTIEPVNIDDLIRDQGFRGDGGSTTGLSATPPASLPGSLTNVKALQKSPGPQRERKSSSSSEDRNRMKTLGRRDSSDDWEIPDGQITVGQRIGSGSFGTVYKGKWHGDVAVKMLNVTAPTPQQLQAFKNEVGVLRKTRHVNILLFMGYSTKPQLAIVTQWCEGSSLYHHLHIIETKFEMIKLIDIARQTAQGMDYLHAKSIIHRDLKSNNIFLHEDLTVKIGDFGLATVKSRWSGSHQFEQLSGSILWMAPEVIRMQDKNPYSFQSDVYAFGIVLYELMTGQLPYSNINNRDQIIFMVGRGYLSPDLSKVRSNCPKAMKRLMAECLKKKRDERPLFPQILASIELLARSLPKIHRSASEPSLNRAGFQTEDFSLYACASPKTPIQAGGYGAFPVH
Sequence of JNK1 (P45983 whole entry): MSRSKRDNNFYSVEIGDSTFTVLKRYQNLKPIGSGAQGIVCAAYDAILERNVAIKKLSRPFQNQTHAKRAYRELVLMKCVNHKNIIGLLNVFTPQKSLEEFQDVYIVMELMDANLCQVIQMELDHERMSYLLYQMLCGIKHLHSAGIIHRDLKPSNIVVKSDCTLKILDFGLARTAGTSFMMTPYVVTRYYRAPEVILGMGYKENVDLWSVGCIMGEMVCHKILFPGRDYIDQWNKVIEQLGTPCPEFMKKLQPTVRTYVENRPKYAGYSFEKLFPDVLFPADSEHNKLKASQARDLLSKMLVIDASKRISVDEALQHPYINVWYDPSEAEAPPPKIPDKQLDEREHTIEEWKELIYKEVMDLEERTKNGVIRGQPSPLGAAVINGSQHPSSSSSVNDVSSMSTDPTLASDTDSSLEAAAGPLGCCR

SMILES	IC50 [1] [nM]	Selectivity JNK1, IC50(off-target)/IC50(MKK4) [2]	Selectivity IVIKK7, IC50(off-target)/IC50(MKK4) [3]	Selectivity Braf, IC50(off-target)/IC50(MKK4) [4]	Potency MKK4 (IC50) [1]
CCCS(=O)(=O)Nc1ccc(F)c(C(=O)c2c[nH]c3ncc(-c4ccc5c(c4)C=C(C)N=S5(C)=O)cc23)c1F (stereo not drawn) [Example 95, N-(3-(5-(1,3-dimethyl-1-oxido-1l4-benzo[e][1,2]thiazin-6-yl)-1H-pyrrolo[2,3-b]pyridine-3-carbonyl)-2,4-difluorophenyl)propane-1-sulfonamide]	100 to 1000	◯ (3 ≥ IC50(off-target)/IC50(MKK4))	+++ (IC50(off-target)/IC50(MKK4) > 100)	◯ (3 ≥ IC50(off-target)/IC50(MKK4))	
CCCS(=O)(=O)Nc1c(F)ccc(C(=O)c2c[nH]c3ncc(-c4ccc(F)cc4)cc23)c1F [Example 216, N-(2,6-difluoro-3-(5-(4-fluorophenyl)-1H-pyrrolo[2,3-b]pyridine-3-carbonyl)phenyl)propane-1-sulfonamide]	< 100	+++ (IC50(off-target)/IC50(MKK4) > 100)	+++ (IC50(off-target)/IC50(MKK4) > 100)	+++ (IC50(off-target)/IC50(MKK4) > 100)	
CCCS(=O)(=O)Nc1ccc(F)c(C(=O)c2c[nH]c3ncc(-c4ccc(S(C)(=O)=O)cc4)cc23)c1F [Example 54]	100 to 1000	◯ (3 ≥ IC50(off-target)/IC50(MKK4))	+++ (IC50(off-target)/IC50(MKK4) > 100)	◯ (3 ≥ IC50(off-target)/IC50(MKK4))	
CCCS(=O)(=O)Nc1c(F)ccc(C(=O)c2c[nH]c3ncc(-c4cnc(N5CCOCC5)nc4)cc23)c1F [Example 188, N-(2,6-difluoro-3-(5-(2-morpholinopyrimidin-5-yl)-1H-pyrrolo[2,3-b]pyridine-3-carbonyl)phenyl)propane-1-sulfonamide]	< 100	+++ (IC50(off-target)/IC50(MKK4) > 100)	+++ (IC50(off-target)/IC50(MKK4) > 100)	+++ (IC50(off-target)/IC50(MKK4) > 100)	
CCCS(=O)(=O)Nc1c(F)ccc(C(=O)c2c[nH]c3ncc(-c4ccc(-c5nnn[nH]5)cc4)cc23)c1F [Example 219, N-(3-(5-(4-(1H-tetrazol-5-yl)phenyl)-1H-pyrrolo[2,3-b]pyridine-3-carbonyl)-2,6-difluorophenyl)propane-1-sulfonamide]		++ (100 ≥ IC50(off-target)/IC50(MKK4) > 10)	+++ (IC50(off-target)/IC50(MKK4) > 100)	+++ (IC50(off-target)/IC50(MKK4) > 100)	++·+
CCCS(=O)(=O)Nc1c(F)ccc(C(=O)c2c[nH]c3ncc(-c4ccc(OCC(O)CO)cc4)cc23)c1F (stereo not drawn) [Example 154, N-(3-(5-(4-(2,3-dihydroxypropoxy)phenyl)-1H-pyrrolo[2,3-b]pyridine-3-carbonyl)-2,6-difluorophenyl)propane-1-sulfonamide]	< 100	++ (100 ≥ IC50(off-target)/IC50(MKK4) > 10)	+++ (IC50(off-target)/IC50(MKK4) > 100)	++ (100 ≥ IC50(off-target)/IC50(MKK4) > 10)	
CCCS(=O)(=O)Nc1ccc(F)c(C(=O)c2c[nH]c3ncc(-c4ccccc4N)cc23)c1F [Example 122, N-(3-(5-(2-aminophenyl)-1H-pyrrolo[2,3-b]pyridine-3-carbonyl)-2,4-difluorophenyl)propane-1-sulfonamide]	100 to 1000	◯ (3 ≥ IC50(off-target)/IC50(MKK4))	+++ (IC50(off-target)/IC50(MKK4) > 100)	◯ (3 ≥ IC50(off-target)/IC50(MKK4))	
CCCS(=O)(=O)Nc1ccc(F)c(C(=O)c2c[nH]c3ncc(N4CC(C)OC(C)C4)cc23)c1F (stereo not drawn) [Example 138, N-(3-(5-(2,6-dimethyl-morpholino)-1H-pyrrolo[2,3-b]pyridine-3-carbonyl)-2,4-difluorophenyl)propane-1-sulfonamide]	1000 to 10000	◯ (3 ≥ IC50(off-target)/IC50(MKK4))	++ (100 ≥ IC50(off-target)/IC50(MKK4) > 10)	◯ (3 ≥ IC50(off-target)/IC50(MKK4))	
CCCS(=O)(=O)Nc1ccc(F)c(C(=O)c2c[nH]c3ncc(-c4ccc(SC)cc4)cc23)c1F [Example 55]	100 to 1000	+ (10 ≥ IC50(off-target)/IC50(MKK4) > 3)	+++ (IC50(off-target)/IC50(MKK4) > 100)	◯ (3 ≥ IC50(off-target)/IC50(MKK4))	
CCCS(=O)(=O)Nc1c(F)ccc(C(=O)c2c[nH]c3ncc(-c4ccc(C5CC5)nc4C)cc23)c1F [Example 170, N-(3-(5-(6-cyclopropyl-2-methylpyridin-3-yl)-1H-pyrrolo[2,3-b]pyridine-3-carbonyl)-2,6-difluorophenyl)propane-1-sulfonamide]	< 100	+++ (IC50(off-target)/IC50(MKK4) > 100)	+++ (IC50(off-target)/IC50(MKK4) > 100)	+++ (IC50(off-target)/IC50(MKK4) > 100)	
CCCCS(=O)(=O)Nc1c(F)ccc(C(=O)c2c[nH]c3ncc(-c4ccc(F)cc4C)cc23)c1F [Example 227, N-(2,6-difluoro-3-(5-(4-fluoro-2-methylphenyl)-1H-pyrrolo[2,3-b]pyridine-3-carbonyl)phenyl)butane-1-sulfonamide]	< 100	+++ (IC50(off-target)/IC50(MKK4) > 100)	+++ (IC50(off-target)/IC50(MKK4) > 100)	+++ (IC50(off-target)/IC50(MKK4) > 100)	
CCCS(=O)(=O)Nc1c(F)ccc(C(=O)c2c[nH]c3ncc(-c4cnc(NCCOC)nc4)cc23)c1F [Example 187, N-(2,6-difluoro-3-(5-(2-((2-methoxyethyl)amino)pyrimidin-5-yl)-1H-pyrrolo[2,3-b]pyridine-3-carbonyl)phenyl)propane-1-sulfonamide]	100 to 1000	+++ (IC50(off-target)/IC50(MKK4) > 100)	+++ (IC50(off-target)/IC50(MKK4) > 100)	+++ (IC50(off-target)/IC50(MKK4) > 100)	
CCCS(=O)(=O)Nc1c(F)ccc(C(=O)c2c[nH]c3ncc(-c4ccc(F)cc4Cl)cc23)c1F [Example 221, N-(3-(5-(2-chloro-4-fluorophenyl)-1H-pyrrolo[2,3-b]pyridine-3-carbonyl)-2,6-difluorophenyl)propane-1-sulfonamide]	< 100	++ (100 ≥ IC50(off-target)/IC50(MKK4) > 10)	+++ (IC50(off-target)/IC50(MKK4) > 100)	+++ (IC50(off-target)/IC50(MKK4) > 100)	
CCCS(=O)(=O)Nc1ccc(F)c(C(=O)c2c[nH]c3ncc(-c4ccccc4C(F)(F)F)cc23)c1F [Example 97, N-(2,4-difluoro-3-(5-(2-(trifluoromethyl)phenyl)-1H-pyrrolo[2,3-b]pyridine-3-carbonyl)phenyl)propane-1-sulfonamide]	100 to 1000	+ (10 ≥ IC50(off-target)/IC50(MKK4) > 3)	+++ (IC50(off-target)/IC50(MKK4) > 100)	◯ (3 ≥ IC50(off-target)/IC50(MKK4))	
CCCS(=O)(=O)Nc1c(F)ccc(C(=O)c2c[nH]c3ncc(-c4ccc(F)cc4C)cc23)c1F [Example 217, N-(2,6-difluoro-3-(5-(4-fluoro-2-methylphenyl)-1H-pyrrolo[2,3-b]pyridine-3-carbonyl)phenyl)propane-1-sulfonamide]	< 100	+++ (IC50(off-target)/IC50(MKK4) > 100)	+++ (IC50(off-target)/IC50(MKK4) > 100)	+++ (IC50(off-target)/IC50(MKK4) > 100)	
